In US20140128402A1, “PHARMACEUTICAL COMBINATION” (IPCA Laboratories Limited, priority 2011, published 2014):

How the values were obtained:
Format in all cases: in vivo, Wistar rats
[1] = test system: STZ-induced diabetic rats; assay: Study No 1: body weight, food intake and water intake in STZ-induced diabetic rats; conditions: for AVERAGE WATER INTAKE: oral
Procedure: (§1) In this experiment 48 Wistar rats weighing 130-150 g of either sex were divided randomly into 8 groups consisting of 6 rats each. The study drugs suspended in vehicle [0.1% w/v suspension of Tween 80 and carboxymethylcellulose (CMC) in water] were administered for orally for 21 days. Group 1 (normal vehicle control) consisted of normal rats that neither received streptozotocin nor any test drug; Group 2 served as streptozotocin induced diabetic control (Diabetes was induced in rats by single administration of streptozotocin (60 mg/kg/i.p) dissolved in 0.1 M-citrate buffer, pH 4.5). Forty-eight hours later, blood samples were collected and glucose levels were determined to confirm the development of diabetes. […] Group 3 was diabetic rats treated with dose equivalent to human therapeutic dose of sitagliptin (STG) (11 mg/kg); Group 4 was diabetic rats treated with dose equivalent to human therapeutic dose of Hydroxychloroquine (HCQ) (46 mg/kg), Group 5 was diabetic rats treated with combination of HCQ 46 mg/kg and STG11 mg/kg; […] For other biochemical parameters i.e. […] Other parameters like body weight, food intake and water intake were evaluated weekly till day 21st.

[2] = test system: STZ-induced diabetic rats; assay: Study No 1: blood glucose in STZ-induced diabetic rats (HCQ with sitagliptin)
Procedure: In this experiment 48 Wistar rats weighing 130-150 g of either sex were divided randomly into 8 groups consisting of 6 rats each. The study drugs suspended in vehicle [0.1% w/v suspension of Tween 80 and carboxymethylcellulose (CMC) in water] were administered for orally for 21 days. Group 1 (normal vehicle control) consisted of normal rats that neither received streptozotocin nor any test drug; Group 2 served as streptozotocin induced diabetic control (Diabetes was induced in rats by single administration of streptozotocin (60 mg/kg/i.p) dissolved in 0.1 M-citrate buffer, pH 4.5). Forty-eight hours later, blood samples were collected and glucose levels were determined to confirm the development of diabetes.
Blood glucose level was measured in normal and experimental rats at 1st, 7th, 14th and 21st day of administration. For other biochemical parameters i.e. Insulin, HbA1c, Triglycerides, Total Cholesterol, HDL, SGOT, SGPT, Total Protein, Albumin, Creatinine and Urea Blood samples were collected 1 h after the last dose administration from 18 h fasted rats through the retro-orbital plexus under chloroform anesthesia and analyzed using autoanalyzer (Microlab 2000). Other parameters like body weight, food intake and water intake were evaluated weekly till day 21st.

[3] = test system: STZ-induced diabetic rats; assay: Study No 1: biochemical parameters in STZ-induced diabetic rats; conditions: after 21 days
Procedure: as §1

[4] = subtherapeutic dose: STG 5.5, HCQ 23, STG+HCQ 5.5+23 mg/kg/day oral
[5] = therapeutic dose: STG 11, HCQ 46, STG+HCQ 11+46 mg/kg/day oral

Which results are given for N[C@@H](CC(=O)N1CCn2c(nnc2C(F)(F)F)C1)Cc1cc(F)c(F)cc1F [STG, Sitagliptin]?
AVERAGE WATER INTAKE ([1]; Day 1, Sub-The (subtherapeutic dose)): 28.33 mL; AVERAGE WATER INTAKE ([1]; Day 1, The (therapeutic dose)): 30.67 mL; Body Weight ([1]; Day 1, subtherapeutic dose: STG 5.5, HCQ 23, STG+HCQ 5.5+23 mg/kg oral): 145.83 ± 12.61 g; AVERAGE FOOD INTAKE ([1]; Day 1, subtherapeutic dose: STG 5.5, HCQ 23, combination 5.5+23 mg/kg oral): 11.50 g; Body Weight ([1]; Day 1, therapeutic dose: STG 11, HCQ 46, STG+HCQ 11+46 mg/kg oral): 137.83 ± 6.49 g; AVERAGE FOOD INTAKE ([1]; Day 1, therapeutic dose: STG 11, HCQ 46, combination 11+46 mg/kg oral): 12.17 g; AVERAGE WATER INTAKE ([1]; Day 7, Sub-The (subtherapeutic dose)): 27.17 mL; AVERAGE WATER INTAKE ([1]; Day 7, The (therapeutic dose)): 29.00 mL; Body Weight ([1]; Day 7, subtherapeutic dose: STG 5.5, HCQ 23, STG+HCQ 5.5+23 mg/kg oral): 147.83 ± 12.37 g; AVERAGE FOOD INTAKE ([1]; Day 7, subtherapeutic dose: STG 5.5, HCQ 23, combination 5.5+23 mg/kg oral): 11.83 g; Body Weight ([1]; Day 7, therapeutic dose: STG 11, HCQ 46, STG+HCQ 11+46 mg/kg oral): 142.67 ± 7.45 g; AVERAGE FOOD INTAKE ([1]; Day 7, therapeutic dose: STG 11, HCQ 46, combination 11+46 mg/kg oral): 10.67 g; AVERAGE WATER INTAKE ([1]; Day 14, Sub-The (subtherapeutic dose)): 26.67 mL; AVERAGE WATER INTAKE ([1]; Day 14, The (therapeutic dose)): 28.50 mL; Body Weight ([1]; Day 14, subtherapeutic dose: STG 5.5, HCQ 23, STG+HCQ 5.5+23 mg/kg oral): 150.50 ± 12.31 g; AVERAGE FOOD INTAKE ([1]; Day 14, subtherapeutic dose: STG 5.5, HCQ 23, combination 5.5+23 mg/kg oral): 10.83 g; Body Weight ([1]; Day 14, therapeutic dose: STG 11, HCQ 46, STG+HCQ 11+46 mg/kg oral): 149.00 ± 7.46 g; AVERAGE FOOD INTAKE ([1]; Day 14, therapeutic dose: STG 11, HCQ 46, combination 11+46 mg/kg oral): 9.83 g; AVERAGE WATER INTAKE ([1]; Day 21, Sub-The (subtherapeutic dose)): 27.00 mL; AVERAGE WATER INTAKE ([1]; Day 21, The (therapeutic dose)): 27.17 mL; AVERAGE FOOD INTAKE ([1]; Day 21, subtherapeutic dose: STG 5.5, HCQ 23, combination 5.5+23 mg/kg oral): 10.33 g; AVERAGE FOOD INTAKE ([1]; Day 21, therapeutic dose: STG 11, HCQ 46, combination 11+46 mg/kg oral): 8.83 g; Plasma glucose concentration ([2]; 1st day, subtherapeutic dose: STG 5.5, HCQ 23, STG+HCQ 5.5+23 mg/kg oral): 267.17 ± 12.83 mg/dL; Plasma glucose concentration ([2]; 1st day, therapeutic dose: STG 11, HCQ 46, STG+HCQ 11+46 mg/kg oral): 258.33 ± 11.57 mg/dL; Plasma glucose concentration ([2]; 7th day, subtherapeutic dose: STG 5.5, HCQ 23, STG+HCQ 5.5+23 mg/kg oral): 261.83 ± 11.58 mg/dL; Plasma glucose concentration ([2]; 7th day, therapeutic dose: STG 11, HCQ 46, STG+HCQ 11+46 mg/kg oral): 225.00 ± 12.63 mg/dL; Plasma glucose concentration ([2]; 14th day, subtherapeutic dose: STG 5.5, HCQ 23, STG+HCQ 5.5+23 mg/kg oral): 227.83 ± 13.95 mg/dL; Plasma glucose concentration ([2]; 14th day, therapeutic dose: STG 11, HCQ 46, STG+HCQ 11+46 mg/kg oral, 46 mg/kg): 206.17 ± 10.26 mg/dL; Plasma glucose concentration ([2]; 14th day, therapeutic dose: STG 11, HCQ 46, STG+HCQ 11+46 mg/kg oral, listed as sitagliptin, 46 mg/kg): significant improvement; Plasma glucose concentration ([2]; 21st day, subtherapeutic dose: STG 5.5, HCQ 23, STG+HCQ 5.5+23 mg/kg oral): 200.83 ± 4.71 mg/dL; Plasma glucose concentration ([2]; 21st day, therapeutic dose: STG 11, HCQ 46, STG+HCQ 11+46 mg/kg oral): 156.50 ± 12.85 mg/dL; Albumin [3, 4]: 2.20 g/dL; Creatinine [3, 4]: 1.76; HDL-C [3, 4]: 23.92 mg/dL; HbA1c [3, 4]: 5.12; Insulin (serum) [3, 4]: 4.43; SGOT [3, 4]: 54.02; SGPT [3, 4]: 54.64; TC [3, 4]: 156.69 mg/dL; TG [3, 4]: 121.91 mg/dL; Total Protein [3, 4]: 4.15 g/dL; Urea [3, 4]: 45.05 mg/dL; Albumin [3, 5]: 2.63 g/dL; Creatinine [3, 5]: 1.63; HDL-C [3, 5]: 26.04 mg/dL; HbA1c [3, 5]: 5.04; Insulin (serum) [3, 5]: 6.11; SGOT [3, 5]: 51.47; SGPT [3, 5]: 55.47; TC [3, 5]: 146.92 mg/dL; TG [3, 5]: 116.48 mg/dL; Total Protein [3, 5]: 4.83 g/dL; Urea [3, 5]: 23.57 mg/dL
